Active and inactive are the calls of the source. The calls are words filed in the database; no cut-off is given here.

By half-life is commonly meant how long it takes for the measured level to halve. One may read the Cmax as the maximum level reached in the sampled fluid or tissue. By IC50 is commonly meant the concentration at which inhibition is half-maximal. In general, Ki refers to a dissociation constant, usually derived from enzyme kinetics or from competition with a known ligand.

Sequence of Voltage-gated inwardly rectifying potassium channel KCNH2 (Q12809 whole entry): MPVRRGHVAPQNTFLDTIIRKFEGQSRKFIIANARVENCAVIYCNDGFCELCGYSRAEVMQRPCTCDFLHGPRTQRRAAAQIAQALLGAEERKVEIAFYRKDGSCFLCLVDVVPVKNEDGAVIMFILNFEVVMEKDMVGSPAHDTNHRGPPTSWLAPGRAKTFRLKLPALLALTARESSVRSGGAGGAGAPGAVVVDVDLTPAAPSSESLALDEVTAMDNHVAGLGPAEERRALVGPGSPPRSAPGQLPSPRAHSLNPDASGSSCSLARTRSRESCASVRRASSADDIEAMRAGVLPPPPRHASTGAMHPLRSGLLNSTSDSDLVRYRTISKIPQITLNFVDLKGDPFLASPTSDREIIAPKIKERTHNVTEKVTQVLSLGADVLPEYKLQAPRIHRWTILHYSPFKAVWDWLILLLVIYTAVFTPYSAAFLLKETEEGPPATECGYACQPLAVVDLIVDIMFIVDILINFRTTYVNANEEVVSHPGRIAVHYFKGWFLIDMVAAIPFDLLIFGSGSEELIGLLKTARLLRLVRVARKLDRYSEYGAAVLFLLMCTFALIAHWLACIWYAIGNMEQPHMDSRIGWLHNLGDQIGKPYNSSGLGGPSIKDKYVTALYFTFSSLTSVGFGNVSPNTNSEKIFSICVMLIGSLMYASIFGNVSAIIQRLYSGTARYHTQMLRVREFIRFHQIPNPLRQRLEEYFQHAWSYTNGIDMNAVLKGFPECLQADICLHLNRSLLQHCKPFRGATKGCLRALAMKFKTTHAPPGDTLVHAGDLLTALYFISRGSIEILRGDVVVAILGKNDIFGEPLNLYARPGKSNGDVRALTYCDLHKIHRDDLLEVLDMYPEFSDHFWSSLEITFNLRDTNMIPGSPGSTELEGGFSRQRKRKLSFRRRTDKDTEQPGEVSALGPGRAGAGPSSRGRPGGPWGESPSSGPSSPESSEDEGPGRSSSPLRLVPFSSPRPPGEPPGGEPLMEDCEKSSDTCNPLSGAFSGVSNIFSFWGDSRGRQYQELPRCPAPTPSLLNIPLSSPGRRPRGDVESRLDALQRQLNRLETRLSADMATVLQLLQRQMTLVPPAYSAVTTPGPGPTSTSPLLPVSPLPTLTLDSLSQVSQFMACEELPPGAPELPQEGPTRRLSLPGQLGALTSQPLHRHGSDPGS

Test system in one data set: not listed separately
In words: Half life in rhesus monkey at 5 mg/kg, iv and 4 mg/kg, po. It counts as ADME, organism-based, Macaca mulatta. Conditions: in vivo.
Consider `CC[C@](O)(c1cn(Cc2ccc3c(-c4ccc(F)cc4)c(C(N)=O)sc3c2)nn1)C(F)(F)F`, for which the half-life is 22 h.

Test system in a further data set: not listed separately
Kind of data set: Cmax in dog at 5 mg/kg, iv and 4 mg/kg, po. Conditions: in vivo. It is filed as ADME, organism-based, Canis lupus familiaris.
In turn, `CC[C@](O)(c1cn(Cc2ccc3c(-c4ccc(F)cc4)c(C(N)=O)sc3c2)nn1)C(F)(F)F` had a Cmax of 6.7 µM.

Test system in the next data set: not listed separately
Kind of data set: Cmax in rat at 5 mg/kg, iv and 20 mg/kg, po. It is filed as ADME, organism-based. Conditions: in vivo.
Turning to `CC[C@](O)(c1cn(Cc2ccc3c(-c4ccc(F)cc4)c(C(N)=O)sc3c2)nn1)C(F)(F)F`, the Cmax came to 19.4 µM.

For a further data set, the target named is T1, Polyunsaturated fatty acid lipoxygenase ALOX15 (Homo sapiens, UniProt P16050).
T1 sequence (P16050 whole entry): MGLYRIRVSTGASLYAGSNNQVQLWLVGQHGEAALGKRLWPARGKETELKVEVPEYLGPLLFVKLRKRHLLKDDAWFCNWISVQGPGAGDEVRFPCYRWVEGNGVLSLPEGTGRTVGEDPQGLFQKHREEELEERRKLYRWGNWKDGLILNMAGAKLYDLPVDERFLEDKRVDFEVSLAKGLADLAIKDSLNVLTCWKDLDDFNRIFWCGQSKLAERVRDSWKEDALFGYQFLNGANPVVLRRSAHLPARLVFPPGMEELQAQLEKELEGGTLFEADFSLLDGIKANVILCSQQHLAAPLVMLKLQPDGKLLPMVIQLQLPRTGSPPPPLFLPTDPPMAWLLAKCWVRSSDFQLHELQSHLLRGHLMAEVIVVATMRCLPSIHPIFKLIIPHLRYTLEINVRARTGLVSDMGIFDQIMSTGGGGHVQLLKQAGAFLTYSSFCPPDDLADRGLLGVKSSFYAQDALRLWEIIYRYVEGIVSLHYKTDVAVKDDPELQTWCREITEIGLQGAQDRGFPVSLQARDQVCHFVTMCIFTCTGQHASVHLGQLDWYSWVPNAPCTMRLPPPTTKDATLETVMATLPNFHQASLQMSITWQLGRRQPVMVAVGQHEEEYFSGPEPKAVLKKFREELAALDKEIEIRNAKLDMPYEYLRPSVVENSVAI
In words: Inhibition of 15-lipoxygenase.
Conditions: not given
For the compound `CC[C@](O)(c1cn(Cc2ccc3c(-c4ccc(F)cc4)c(C(N)=O)sc3c2)nn1)C(F)(F)F`, the IC50 was above 20000 nM.

For another data set, the target named is T2, Arachidonate 5-lipoxygenase-activating protein (Homo sapiens, UniProt P20292).
T2 sequence (P20292 whole entry): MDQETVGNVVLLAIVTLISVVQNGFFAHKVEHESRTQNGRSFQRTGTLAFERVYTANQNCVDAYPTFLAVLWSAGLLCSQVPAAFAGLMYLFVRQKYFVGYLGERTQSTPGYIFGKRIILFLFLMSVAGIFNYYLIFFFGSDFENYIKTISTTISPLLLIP
In words: (§1) Inhibition of 5-lipoxygenase activating protein.
Conditions: not given
As to `CC[C@](O)(c1cn(Cc2ccc3c(-c4ccc(F)cc4)c(C(N)=O)sc3c2)nn1)C(F)(F)F`, the IC50 is above 20000 nM.

A further data set has as its target T3, Arachidonate 5-lipoxygenase-activating protein (Homo sapiens) (UniProt P20292).
T3 sequence (whole entry): T2 sequence (P20292 whole entry)
The data set is described as §1.
Conditions: not given
As for `CC[C@](O)(c1cn(Cc2ccc3c(-c4ccc(F)cc4)c(C(=O)O)sc3c2)nn1)C(F)(F)F`, the inhibition result is “inactive”.

Test system in the next data set: not listed separately
Kind of data set: Half life in rat at 5 mg/kg, iv and 20 mg/kg, po. It counts as ADME, organism-based. Conditions: in vivo.
`CC[C@](O)(c1cn(Cc2ccc3c(-c4ccc(F)cc4)c(C(N)=O)sc3c2)nn1)C(F)(F)F` gave a half-life of 7.9 h.

A further data set has as its target Voltage-gated inwardly rectifying potassium channel KCNH2 (Homo sapiens, UniProt Q12809). Kind of data set: Displacement of labeled MK-499 from human ERG.
Conditions: not given
`CCC(O)(c1cn(Cc2ccc3c(-c4ccccc4)csc3c2)nn1)C(F)(F)F` (stereo not given): the inhibitory constant (Ki) entry is “Not Active”.

The same data set, now with this note: human.
For `CC[C@](O)(c1cn(Cc2ccc3c(-c4ccc(F)cc4)c(C(=O)O)sc3c2)nn1)C(F)(F)F`, the “inhibition (INH)” value is recorded as “Not Active”.

The data set is the same for the next values; noted with them: read-out: Ki.
As for `CC[C@@](O)(c1cn(Cc2ccc3c(-c4ccc(F)cc4)c(C(N)=O)sc3c2)nn1)C(F)(F)F`, the Ki was 11000 nM.

On to `CC[C@](O)(c1cn(Cc2ccc3c(-c4ccc(F)cc4)c(C(N)=O)sc3c2)nn1)C(F)(F)F`, for which the Ki turned out to be 13000 nM.

As to `CCC(O)(c1cn(Cc2ccc3c(-c4ccccc4)c(C(C)O)sc3c2)nn1)C(F)(F)F` (stereo not given), the Ki turned out to be 3800 nM.

With `CCC(O)(c1cn(Cc2ccc3c(-c4ccccc4)c(C(=O)N(C)C)sc3c2)nn1)C(F)(F)F` (stereo not given), the Ki is above 20000 nM.

In the case of `CCC(O)(c1cn(Cc2ccc3c(-c4ccccc4)c(C(=O)O)sc3c2)nn1)C(F)(F)F` (stereo not given), the Ki was above 20000 nM.

With `CC[C@](O)(c1cn(Cc2ccc3c(-c4ccc(F)cc4)c(C(=O)O)sc3c2)nn1)C(F)(F)F`, the Ki was above 20000 nM.

For another data set, the target named is T4, Polyunsaturated fatty acid 5-lipoxygenase (Homo sapiens, UniProt P09917).
T4 sequence (P09917 whole entry): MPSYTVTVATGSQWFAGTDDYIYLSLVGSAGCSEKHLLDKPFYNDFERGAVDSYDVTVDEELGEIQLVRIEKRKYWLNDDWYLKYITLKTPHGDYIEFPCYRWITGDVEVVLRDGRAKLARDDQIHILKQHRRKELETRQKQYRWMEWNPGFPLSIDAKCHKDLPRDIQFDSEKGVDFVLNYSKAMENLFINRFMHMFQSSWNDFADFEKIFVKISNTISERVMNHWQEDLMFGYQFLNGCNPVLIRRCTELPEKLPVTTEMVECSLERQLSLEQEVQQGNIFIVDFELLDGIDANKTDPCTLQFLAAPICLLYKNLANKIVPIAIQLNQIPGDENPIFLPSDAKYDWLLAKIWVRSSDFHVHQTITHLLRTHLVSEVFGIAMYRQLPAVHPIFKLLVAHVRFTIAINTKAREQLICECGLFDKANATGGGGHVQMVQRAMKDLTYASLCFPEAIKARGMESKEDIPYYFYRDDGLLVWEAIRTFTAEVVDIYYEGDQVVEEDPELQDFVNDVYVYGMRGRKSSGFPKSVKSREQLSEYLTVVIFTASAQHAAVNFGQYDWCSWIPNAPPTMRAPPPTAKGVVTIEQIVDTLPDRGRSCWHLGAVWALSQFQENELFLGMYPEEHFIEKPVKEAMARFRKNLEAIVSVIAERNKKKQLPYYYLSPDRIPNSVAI
Kind of data set: Inhibition of human recombinant 5-lipoxygenase assessed as arachidonic acid oxidation.
Conditions: not given
Consider `CCC(O)(c1cn(Cc2ccc3c(-c4ccccc4)csc3c2)nn1)C(F)(F)F` (stereo not given), for which the half-inhibitory concentration (IC50) came out at 40 nM.

As to `CC[C@@](O)(c1cn(Cc2ccc3c(-c4ccc(F)cc4)c(C(N)=O)sc3c2)nn1)C(F)(F)F`, the half-maximal inhibitory concentration (IC50) was determined as 1160 nM.

For the compound `CC[C@](O)(c1cn(Cc2ccc3c(-c4ccc(F)cc4)c(C(N)=O)sc3c2)nn1)C(F)(F)F`, the 50% inhibitory concentration (IC50) turned out to be 55 nM.

In the case of `CCC(O)(c1cn(Cc2ccc3c(-c4ccccc4)c(C(C)O)sc3c2)nn1)C(F)(F)F` (stereo not given), the IC50 amounted to 88 nM.

Take `CCC(O)(c1cn(Cc2ccc3c(-c4ccccc4)c(C(=O)N(C)C)sc3c2)nn1)C(F)(F)F` (stereo not given): the IC50 stood at 1890 nM.

As to `CCC(O)(c1cn(Cc2ccc3c(-c4ccccc4)c(C(=O)O)sc3c2)nn1)C(F)(F)F` (stereo not given), the half-maximal inhibitory concentration (IC50) was above 10000 nM.

Consider `CC[C@](O)(c1cn(Cc2ccc3c(-c4ccc(F)cc4)c(C(=O)O)sc3c2)nn1)C(F)(F)F`, for which the IC50 was above 10000 nM.

Test system in the next data set: not listed separately
In words: Half life in dog at 5 mg/kg, iv and 4 mg/kg, po. It is filed as ADME, organism-based, Canis lupus familiaris. Conditions: in vivo.
The compound `CC[C@](O)(c1cn(Cc2ccc3c(-c4ccc(F)cc4)c(C(N)=O)sc3c2)nn1)C(F)(F)F` had a half-life of 29 h.

Test system in the next data set: not listed separately
In words: Oral bioavailability in rat at 20 mg/kg. It counts as ADME, organism-based. Conditions: in vivo.
As for `CC[C@](O)(c1cn(Cc2ccc3c(-c4ccc(F)cc4)c(C(N)=O)sc3c2)nn1)C(F)(F)F`, the bioavailability turned out to be 114%.

Test system in the next data set: not listed separately
Kind of data set: Oral bioavailability in dog at 4 mg/kg. It counts as ADME, organism-based, Canis lupus familiaris. Conditions: in vivo.
With `CC[C@](O)(c1cn(Cc2ccc3c(-c4ccc(F)cc4)c(C(N)=O)sc3c2)nn1)C(F)(F)F`, the bioavailability was 120%.

The target in the next data set is T4, Polyunsaturated fatty acid 5-lipoxygenase. Kind of data set: Inhibition of 5-lipoxygenase in human whole blood assessed as inhibition of LTB4 production. It is filed as tissue-based.
Conditions: not given
`CCC(O)(c1cn(Cc2ccc3c(-c4ccccc4)csc3c2)nn1)C(F)(F)F` (stereo not given): the IC50 amounted to 598 nM.

As to `CC[C@@](O)(c1cn(Cc2ccc3c(-c4ccc(F)cc4)c(C(N)=O)sc3c2)nn1)C(F)(F)F`, the 50% inhibitory concentration (IC50) worked out at 154 nM.

Regarding `CC[C@](O)(c1cn(Cc2ccc3c(-c4ccc(F)cc4)c(C(N)=O)sc3c2)nn1)C(F)(F)F`, the IC50 turned out to be 21 nM.

`CCC(O)(c1cn(Cc2ccc3c(-c4ccccc4)c(C(C)O)sc3c2)nn1)C(F)(F)F` (stereo not given): the half-maximal inhibitory concentration (IC50) worked out at 161 nM.

Take `CCC(O)(c1cn(Cc2ccc3c(-c4ccccc4)c(C(=O)N(C)C)sc3c2)nn1)C(F)(F)F` (stereo not given): the IC50 turned out to be 1840 nM.

Take `CCC(O)(c1cn(Cc2ccc3c(-c4ccccc4)c(C(=O)O)sc3c2)nn1)C(F)(F)F` (stereo not given): the IC50 was above 20000 nM.

Consider `CC[C@](O)(c1cn(Cc2ccc3c(-c4ccc(F)cc4)c(C(=O)O)sc3c2)nn1)C(F)(F)F`, for which the IC50 is above 20000 nM.

A further data set concerns the target T5, Polyunsaturated fatty acid lipoxygenase ALOX12 (Homo sapiens, UniProt P18054).
T5 sequence (P18054 whole entry): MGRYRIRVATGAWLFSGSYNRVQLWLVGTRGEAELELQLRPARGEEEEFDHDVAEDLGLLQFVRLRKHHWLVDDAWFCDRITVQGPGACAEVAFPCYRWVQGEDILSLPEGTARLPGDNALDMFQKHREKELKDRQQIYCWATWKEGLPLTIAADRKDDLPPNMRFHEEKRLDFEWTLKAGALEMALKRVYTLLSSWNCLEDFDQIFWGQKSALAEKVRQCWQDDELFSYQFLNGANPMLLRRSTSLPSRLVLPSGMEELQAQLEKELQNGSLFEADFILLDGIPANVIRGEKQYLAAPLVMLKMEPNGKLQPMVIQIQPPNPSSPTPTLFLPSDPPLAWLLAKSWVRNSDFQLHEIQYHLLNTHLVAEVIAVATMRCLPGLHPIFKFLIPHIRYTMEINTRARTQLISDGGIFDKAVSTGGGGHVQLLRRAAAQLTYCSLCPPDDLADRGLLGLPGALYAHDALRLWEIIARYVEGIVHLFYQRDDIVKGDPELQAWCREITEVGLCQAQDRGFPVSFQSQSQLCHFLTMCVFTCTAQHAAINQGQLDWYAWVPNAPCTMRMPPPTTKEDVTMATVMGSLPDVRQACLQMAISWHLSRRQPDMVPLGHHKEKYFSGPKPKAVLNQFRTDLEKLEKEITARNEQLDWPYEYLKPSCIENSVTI
Kind of data set: Inhibition of 12-lipoxygenase.
Conditions: not given
The compound `CC[C@](O)(c1cn(Cc2ccc3c(-c4ccc(F)cc4)c(C(N)=O)sc3c2)nn1)C(F)(F)F` came in with an IC50 above 20000 nM.

Test system in another data set: not listed separately
In words: Cmax in rhesus monkey at 5 mg/kg, iv and 4 mg/kg, po. It counts as ADME, organism-based, Macaca mulatta. Conditions: in vivo.
In the case of `CC[C@](O)(c1cn(Cc2ccc3c(-c4ccc(F)cc4)c(C(N)=O)sc3c2)nn1)C(F)(F)F`, the Cmax worked out at 1.4 µM.

Test system in a further data set: not listed separately
In words: Oral bioavailability in rhesus monkey at 4 mg/kg. It is filed as ADME, organism-based, Macaca mulatta. Conditions: in vivo.
`CC[C@](O)(c1cn(Cc2ccc3c(-c4ccc(F)cc4)c(C(N)=O)sc3c2)nn1)C(F)(F)F`: the bioavailability is 66%.

Source of the values: ChEMBL document CHEMBL1287744, “Potent and selective 5-LO inhibitor bearing benzothiophene pharmacophore: discovery of MK-5286” (Bioorg Med Chem Lett, 2010).
